Results taken from article PMC10447463, “Data-mining unveils structure–property–activity correlation of viral infectivity enhancing self-assembling peptides” (Nature Communications, 2023).
Several values for one entry are separate records, joined by “and”; a condition that tells them apart may be missing. Equal values may be shown once. Read-outs that look alike come from different tables or passages of the source.

Columns and labels:
[1] = assay type: physicochemical; conditions: for Tht category (> 1.5 to blank = +): category 1/0; for ThT Cat. / ThT-Fluorescence (categorical): ThT-active if fluorescence at least twice the control
How it was run: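 Fibrils (1 mg/mL solution) were mixed with 50 µM ThT in PBS for 15 min at RT, and fluorescence was read at λex 440/λem 488 nm against a PBS blank, as a triplicate mean ± SD. Zeta potential came from electrophoretic mobility (Smoluchowski) after 1 d aggregation at 1 mg/mL in PBS pH 7.4, diluted into 1 mM KCl.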

[2] = ref sieste 2021 or Schilling2019; cited from earlier work
From the text: Supplement 41467_2023_40663_MOESM7_ESM.zip/FigS17.csv, table | column: Conversion Rate / % ( from sieste 2021 or Schilling2019)

[3] = assay type: physicochemical; design: key to Fibril / Fibril Formation / TEM 2cat / Fibril: 1 = fibrils present; 0 non-fibrillar structures; conditions: for Fibril / Fibril Formation: 1 mg/mL, uranyl acetate stain, qualitative
[4] = β-sheet content by ATR-FT-IR; assay type: physicochemical; conditions: for b -sheet / %: Fig. S7 panel A, β-sheet content by ATR-FT-IR
How it was run: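 Fluorescence at 470 nm (365 nm excitation) was read 20 min after adding fluorescamine to DMSO-dissolved filtrate and unfiltered PNF, then CR computed as 100 − 100 × filtrate/original. Secondary structure came from ATR FT-IR spectra of lyophilized PNF powder.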

[5] = ThT fluorescence relative to blank (42.1851851851852 a.u.)
[6] = relative to blank 42.1851851851852 a.u.
[7] = ThT fluorescence relative to blank, blank = 42.1851851851852
[8] = ThT fluorescence category, 1 if Rel. ThT >2
[9] = Fig S10 panel D, fibril category by TEM
[10] = TEM, 1 = fibrils present, 0 = non-fibrillar
[11] = TEM, 1 = fibrils present, 0 = non-fibrillar structures
[12] = FigS12 panel A, fibril category by TEM

Substance	Tht rel to blank (42.1851851851852) [1, 5]	Tht category (> 1.5 to blank = +) [1]	Tht rel to blank (42.1851851851852) [1, 6]	TEM: 1= fibrils, 0= aggregates (micelle), 0.5 = aggregates and fibrils, -1 = nothing obersved, STD prep [3]	Tht rel to blank (42.1851851851852) [1, 7]	FTIR ß-sheet content/ % ([4]; ATR-FT-IR)	other results
CKAKAQANM [BL9]	1.249	0 (ThT-inactive (N-Fold <2))	1.249	0.5	–	–	Conversion Rate / % ( from sieste 2021 or Schilling2019) [2]: 38%
KLKLQLL [TG4 / (KM2)]	0.8415	0 (ThT-inactive (N-Fold <2))	–	1	0.8415	0%	–
CEFEFQFNMWQ [TM140]	6.057	1 (ThT. Cat is 1, if Rel. ThT >2)	6.057	1	–	51% and 51.48%	–
RGDCKFKFQF [TM64/ CN15]	6.788	1 (ThT. Cat is 1, if Rel. ThT >2)	–	1	6.788	47% and 46.68%	–
CKFKQFFNM [CK14]	45.97	1 (ThT. Cat is 1, if Rel. ThT >2)	45.97	1	45.97	0%	–
KLKQLL [KM27 / psis14]	1.089	0 (ThT-inactive (N-Fold <2))	–	0.5	1.089	0%	–
CKIKIQINMWQ	–	–	–	–	–	–	Tht category (> 2 to blank = +) ([1]; Fig S10 panel D): 1 (ThT. Cat is 1, if Rel. ThT >2); ThT Cat. ([1]; Fig S10 panel E): 1 (ThT. Cat is 1, if Rel. ThT >2); ThT Cat, ([1]; ThT category, 1 if Rel. ThT >2): 1 (ThT. Cat is 1, if Rel. ThT >2); ThT Cat. [1, 8]: 1 (ThT. Cat is 1, if Rel. ThT >2); ThT Cat. / ThT-Fluorescence (categorical) [1]: 1 (ThT. Cat is 1, if Rel. ThT >2); TEM 2cat [3, 9]: 1; Fibril ([3]; Fig S10 panel E): 1; Fibril / Fibril Formation ([3]; TEM): 1; Fibril [3, 10]: 1; Fibril [3, 11]: 1; TEM 2cat ([3]; category: fibrils present or non-fibrillar): 1; b -sheet / % [4]: 44.89%
CHLHLQL [CN9]	–	1 (ThT. Cat is 1, if Rel. ThT >2)	3.241	0.5	–	49.52%	–
KAKAQA [JJA2 / TM153]	1.172	0 (ThT-inactive (N-Fold <2))	1.172	0	–	40% and 40.34%	FTIR ß-sheet content/ % [4]: 40.34%
CRFRFQF [CN10]	–	1 (ThT. Cat is 1, if Rel. ThT >2)	3.455	1	–	39.77%	–
RGDKIKIQI	–	–	–	–	–	–	Tht category (> 2 to blank = +) ([1]; Fig S10 panel D): 1 (ThT. Cat is 1, if Rel. ThT >2); Tht category (> 2 to blank = +) ([1]; FigS12 panel A): 1 (ThT. Cat is 1, if Rel. ThT >2); ThT Cat, ([1]; FigS12 panel B): 1 (ThT. Cat is 1, if Rel. ThT >2); ThT Cat, ([1]; ThT category, 1 if Rel. ThT >2): 1 (ThT. Cat is 1, if Rel. ThT >2); ThT Cat. [1, 8]: 1 (ThT. Cat is 1, if Rel. ThT >2); ThT Cat. / ThT-Fluorescence (categorical) [1]: 1 (ThT. Cat is 1, if Rel. ThT >2); TEM 2cat [3, 9]: 1; TEM 2cat [3, 12]: 1; Fibril ([3]; FigS12 panel B, TEM): 1; Fibril / Fibril Formation ([3]; TEM): 1; Fibril [3, 10]: 1; Fibril [3, 11]: 1; b -sheet / % [4]: 40.49%
QCKFKQFFNM [CK11]	12.72	1 (ThT. Cat is 1, if Rel. ThT >2)	12.72	0.5	12.72	42% and 41.84%	FTIR ß-sheet content/ % [4]: 41.84%
CRFRVPF [CN8]	–	0 (ThT-inactive (N-Fold <2))	0.9438	0	–	11.43%	–
HHHHKIKIKIKIYYYY [TM6]	9.935	1 (ThT. Cat is 1, if Rel. ThT >2)	–	0.5	9.935	0%	–
QCKFKQFF [CK12]	2.349	1 (ThT. Cat is 1, if Rel. ThT >2)	2.349	1	2.349	0%	–
KFKFQFW [TM71]	3.529	1 (ThT. Cat is 1, if Rel. ThT >2)	3.529	1	3.529	0%	–
KLKQLL	–	–	–	–	–	–	Tht category (> 2 to blank = +) ([1]; Fig S10 panel D): 0 (ThT-inactive (N-Fold <2)); Tht category (> 2 to blank = +) ([1]; FigS12 panel A): 0 (ThT-inactive (N-Fold <2)); ThT Cat, ([1]; FigS12 panel B): 0 (ThT-inactive (N-Fold <2)); ThT Cat, ([1]; ThT category, 1 if Rel. ThT >2): 0 (ThT-inactive (N-Fold <2)); ThT Cat. [1, 8]: 0 (ThT-inactive (N-Fold <2)); ThT Cat. / ThT-Fluorescence (categorical) [1]: 0 (ThT-inactive (N-Fold <2)); TEM 2cat ([3]; Fig S10 panel D): 0; TEM 2cat [3, 12]: 0; Fibril ([3]; FigS12 panel B, TEM): 0; Fibril / Fibril Formation ([3]; TEM): 0; Fibril [3, 10]: 0; Fibril [3, 11]: 0; b -sheet / % [4]: 31.78%
CKFKQFFNMWQ [CK13]	27.7	1 (ThT. Cat is 1, if Rel. ThT >2)	27.7	1	27.7	59% and 59.11%	FTIR ß-sheet content/ % [4]: 59.11%
QCKFKFQFNMWQ [CK7]	1.854	0 (ThT-inactive (N-Fold <2))	1.854	1	–	47% and 47.05%	FTIR ß-sheet content/ % [4]: 47.05%
KIKQIINM [JGA2]	1.176	–	–	1	–	44%	FTIR ß-sheet content/ % [4]: 44%
QCKIKIQINMWQ [EF-C opt]	9.054	1 (ThT. Cat is 1, if Rel. ThT >2)	9.054	1	–	48% and 48.38%	FTIR ß-sheet content/ % [4]: 48.38%
